{"source": "patent US7629317B2", "about": "“Control of growth and repair of gastro-intestinal tissues by gastrokines and inhibitors” (The University of Chicago, priority 2001, dated 2009)", "key": {"Enterococcus faecalis": {"system": "Enterococcus faecalis", "experiment": "Growth of other bacteria and fungi", "format": "cell-based"}, "SK-GT5 cells": {"system": "SK-GT5 cells", "experiment": "Growth of SK-GT5 gastroesophageal adenocarcinoma cells", "format": "cell-based", "conditions": "concentration-dependent", "protocol": "(§1) To characterize the capacity of gastric and intestinal cells to respond to AMP-18, AGS gastric adenocarcinoma cells, HAE human gastric antrum mucosa primary cultures transformed with SV40 large T antigen, rat diploid small intestinal epithelial cells of the IEC-6 (FIG. 15) and IEC-18 lines, NCI N-87 gastric carcinoma cells, and SK-GT5 gastroesophageal adenocarcinoma cells were studied; human WI-38 fibroblasts and HeLa cells served as non-GI control cell lines. Mitogenesis was assayed by performing cell counts 3 to 4 days after exposing cells to the agent of interest, trypsinizing the culture to prepare single cells, and confirming this while counting them in a hemocytometer."}, "Streptococcus pneumoniae": {"system": "Streptococcus pneumoniae", "experiment": "Growth of other bacteria and fungi", "format": "cell-based"}, "HAE cells": {"system": "HAE cells", "experiment": "Wound restitution (migration) of scrape-wounded HAE cell monolayers", "format": "cell-based, human", "protocol": "To measure growth (left panel), HAE cells were plated in 60-mm dishes. Peptide 77-97 (8 μg/ml), or EGF (50 ng/ml), or both were added to the medium and the number of cells counted 4 days later. […] Values are means±SE for 3 cultures. To measure migration (right panel), cells were grown in 60-mm dishes to prepare a confluent monolayer. The medium was aspirated and replaced with fresh medium containing 0.01% calf serum (CS). The monolayer was mechanically wounded by scraping with a razor blade. Detached cells were removed by aspirating medium, and rinsing the remaining cells twice with fresh medium containing 0.01% CS. Fresh medium (5 ml) containing CS (0.01%) and insulin (100 U/L) was added to wounded cultures. Either peptide 77-97 (8 μg/ml), EGF (50 ng/ml), or both were added to duplicate cultures. Migration was assessed at 24, 48 and 72 hr after wounding by measuring the distance (in mm) that cells had migrated from the wound edge using a microscope eyepiece reticle (10-mm long; 0.1-mm markings). Migrating cells at 12 randomly chosen sites along a 0.25-mm stretch of the wound edge were measured at 40-fold magnification. Migration at 2 different sites was measured for each of 2 separate wounds made in each culture. Values are the mean distance cells moved into the denuded area from the edge of 4 different wounds in 2 cultures±SE.\nConfluent monolayer cultures were mechanically wounded by scraping with a razor blade, and the distance that cells migrated from the wound edge was measured using a microscope eyepiece reticle."}, "AGS cells": {"system": "AGS cells", "experiment": "Growth of gastric epithelial AGS cells (cell count four days later)", "format": "cell-based, human", "protocol": "as §1"}, "Staphylococcus aureus": {"system": "Staphylococcus aureus", "experiment": "Growth of other bacteria and fungi", "format": "cell-based"}, "[1]": {"system": "BSC-1 epithelial cell line", "experiment": "Growth (mitogenesis) assay on confluent BSC-1 cells, cells counted 4 days later", "format": "cell-based, monkey", "conditions": "compared with related peptides", "from_the_text": "Finding that a 42-amino acid peptide representing a central region of the novel antrum mucosal cell protein AMP-18 had mitogenic activity similar in character to that of the intact protein in pig and mouse antrum extracts (Table 1), has facilitated the characterization of the bio-active region of the molecule. […] Growth activity determinations have so far been accomplished with the kidney epithelial cell line as well as several gastric and intestinal lines.\nNon-transformed monkey kidney epithelial cell line BSC-1 and other epithelial cell lines were used to assess effects on growth. In general, conditions were chosen for each line such that cells are grown to confluence in plastic dishes in supplemented growth medium with minimal calf (or fetal) serum for growth (Lieske et al., 1997); BSC-1 cells become confluent at 10^6/60 mm dish with 1% calf serum. At the start of the growth assay the medium on the confluent culture was aspirated and replaced with fresh medium with minimal serum to maintain viability (0.01% for BSC-1) cells. AMP-18 preparations were added to the culture medium and 4 days later the cell monolayer was rinsed, detached with trypsin, and the cells were counted using a hemocytometer. Determination of the capacity of AMP-18 to initiate DNA synthesis was measured by the incorporation of [^3H]thymidine (Toback, 1980); to confirm the DNA synthesis assay, autoradiograms of leveled cells were counted (Kartha and Toback, 1985)."}, "occludin": {"system": "occludin", "experiment": "Occludin in mouse colonic mucosa in vivo (immunoblot of NP-40-insoluble fraction)", "conditions": "listed as AMP peptide", "protocol": "To look for a systemic effect of treatment with AMP peptide during the development of DSS colitis, body weight was measured. During the first 4 days of DSS administration, body weight changed little in peptide- or vehicle-treated mice. Then DSS was discontinued, the animals were given water to drink (day 0; FIG. 27, right panel), and measurements of weight were continued. […] To better understand how AMP peptide could exert these salutary effects on hematochezia and weight loss in DSS colitis, studies were performed to determine if observations in cultures of C2 cells were also relevant in vivo. Because DSS treatment appeared to injure barrier function in monolayer cultures of C2 cells, assessed as a decrease in TER (FIG. 22) and reduced occludin in the detergent-insoluble fraction (FIG. 36), a question was whether DSS might adversely affect the content of this TJ protein in vivo. Mice (n=10) were given DSS (3%) or water to drink. Four days later animals were killed, the contents of the colon lumen including blood were washed out, and the mucosa was inspected. The colonic epithelial surface of mice given DSS appeared largely intact with no obvious ulcerations or denuded areas. Surface cells of visibly intact mucosa were then collected by scraping with a glass slide. Occludin levels in the NP-40-insoluble fraction were assessed by immunoblotting. […]"}, "Aspergillus niger": {"system": "Aspergillus niger", "experiment": "Growth of other bacteria and fungi", "format": "cell-based"}, "[2]": {"system": "Staphylococcus epidermidis", "experiment": "Growth of other bacteria and fungi", "format": "cell-based"}, "[3]": {"system": "occludin, ZO-1, ZO-2, claudin-5, E-cadherin, JAM", "experiment": "Accumulation of tight and adherens junction proteins in C2 cells (immunoblot of insoluble fraction, confocal microscopy)", "format": "cell-based, human"}, "Pseudomonas aeruginosa": {"system": "Pseudomonas aeruginosa", "experiment": "Growth of other bacteria and fungi", "format": "cell-based"}, "[4]": {"conditions": "peptide 77-97 8 μg/ml + EGF 50 ng/ml"}}, "note": "“Also recorded” adds a separate entry of the source."}
{"sequence": "LDALVKEKKLQGKGPGGPPPK [97–117, peptide 77-97 of the mature protein, same as 97-117 of the human precursor]", "values": [{"measurement": "growth of Enterococcus faecalis", "setting": "Enterococcus faecalis", "value": "did not alter the growth"}, {"measurement": "growth of SK-GT5 cells", "setting": "SK-GT5 cells", "value": "stimulated"}, {"measurement": "growth of Streptococcus pneumoniae", "setting": "Streptococcus pneumoniae", "value": "did not alter the growth"}, {"measurement": "migration from the wound edge compared with vehicle", "setting": "HAE cells; peptide 8 μg/ml, EGF 50 ng/ml, 24-72 hr", "value": "migrated further"}, {"measurement": "migration, peptide and EGF acting together", "setting": "HAE cells; [4]", "value": "markedly enhanced migration"}, {"measurement": "growth stimulation together with EGF", "setting": "AGS cells; [4]", "value": "additive"}, {"measurement": "growth stimulation of AGS cells (in words)", "setting": "AGS cells; peptide 77-97 8 μg/ml, EGF 50 ng/ml at saturating doses", "value": "stimulated growth; also recorded: mitogenic"}, {"measurement": "growth of Staphylococcus aureus", "setting": "Staphylococcus aureus", "value": "did not alter the growth"}, {"measurement": "mitogenic activity (in words)", "setting": "[1]; listed as peptide 97-107", "value": "equal to the 42-mer"}, {"measurement": "mitogenic activity (in words)", "setting": "[1]; listed as peptide 97-117", "value": "enhanced activity"}, {"measurement": "amount of β-catenin in colonic mucosal epithelial cells", "setting": "occludin", "value": "did not alter; also recorded: does not alter"}, {"measurement": "growth of Aspergillus niger", "setting": "Aspergillus niger", "value": "did not alter the growth"}, {"measurement": "growth of Staphylococcus epidermidis", "setting": "[2]", "value": "did not alter the growth"}, {"measurement": "occludin immunoreactivity of peptide-treated cells exposed to DSS", "setting": "[3]; DSS 4%, vehicle-treated declined about 50% at 1 hr, listed as AMP peptide", "value": "did not decline; also recorded: not reduced"}, {"measurement": "perijunctional actin, confocal microscopy", "setting": "[3]; oxidant (0.3 mM monochloramine) injury", "value": "protected"}, {"measurement": "occludin immunoreactivity at cell junctions, confocal microscopy", "setting": "[3]; pretreated prior to monochloramine 0.3 mM, vs untreated injured cells", "value": "more intense"}, {"measurement": "growth of Pseudomonas aeruginosa", "setting": "Pseudomonas aeruginosa", "value": "did not alter the growth"}]}
